The results in this text go back to patent US5220059A, “Lipoxygenase-inhibiting compounds derived from non-steroidal antiinflammatory carboxylic acids” (Abbott Laboratories, priority 1990, dated 1993).

Assay [1] has as its target T1, 5-lipoxygenase (Rattus norvegicus, UniProt P12527).
T1 construct: 20,000xg supernatant from homogenized RBL-1 cells; endogenous in cells; host or cells: RBL-1 cells (20,000xg supernatant of homogenate)
T1 sequence (P12527 1-673): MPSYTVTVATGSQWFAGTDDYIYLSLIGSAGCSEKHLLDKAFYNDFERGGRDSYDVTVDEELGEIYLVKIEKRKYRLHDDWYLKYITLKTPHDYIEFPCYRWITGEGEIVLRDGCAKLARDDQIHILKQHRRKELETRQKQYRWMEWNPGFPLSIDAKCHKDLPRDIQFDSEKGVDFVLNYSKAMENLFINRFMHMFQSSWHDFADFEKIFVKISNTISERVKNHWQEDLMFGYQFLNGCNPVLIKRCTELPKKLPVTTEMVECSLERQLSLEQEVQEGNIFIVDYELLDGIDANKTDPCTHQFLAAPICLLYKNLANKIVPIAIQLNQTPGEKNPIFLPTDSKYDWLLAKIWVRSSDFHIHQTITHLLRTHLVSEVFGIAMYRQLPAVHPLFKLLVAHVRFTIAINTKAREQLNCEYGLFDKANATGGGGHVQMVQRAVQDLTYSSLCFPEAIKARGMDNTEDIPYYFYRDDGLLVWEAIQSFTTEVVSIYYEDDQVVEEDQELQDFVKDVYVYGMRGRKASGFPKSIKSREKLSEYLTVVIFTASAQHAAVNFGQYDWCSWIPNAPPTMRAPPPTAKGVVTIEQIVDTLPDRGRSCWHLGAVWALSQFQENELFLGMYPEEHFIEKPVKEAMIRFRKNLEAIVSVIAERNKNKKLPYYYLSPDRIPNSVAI
The assay is described as follows: In vitro inhibition of 5-lipoxygenase (20,000xg supernatant from homogenized RBL-1 cells). The format is biochemical. The following applies: read-out: IC50 (concentrations producing 50% enzyme inhibition). Here is the method: The In vitro effect of the compounds of the present invention on 5-lipoxygenase activity was evaluated using the 20,000xg supernatant from homogenized RBL-1 cells in a manner similar to that described by Dyer and coworkers in Fed. Proc., Fed. Am. Soc. Exp. Biol. 43:[…] (1984). IC50 values (i.e., concentrations of the compounds producing 50% enzyme inhibition) were calculated by linear regression analysis of percentage inhibition versus log inhibitor concentration plots.

In assay [2] the test system is leukotriene biosynthesis. The assay is described as follows: In vivo inhibition of leukotriene biosynthesis, rat peritoneal anaphylaxis model. Particulars: 200 μmol/kg PO (gavage) one hour prior to antigen challenge, peritoneal fluids collected 15 minutes after challenge. Here is the method:
The in vivo inhibition of leukotriene biosynthesis by the compounds of the present invention was evaluated in the following manner. The effect of the compounds after oral administration was determined using a rat peritoneal anaphylaxis model in a manner similar to that described by Young and coworkers in Fed. Proc., Fed. Am. Soc. Exp. Biol. 44:1185 (1985). According to this model rats were injected intraperitoneally (IP) with rabbit antibody to bovine serum albumin (BSA) and three hours later injected IP with BSA to induce an antigen-antibody response. Rats were sacrificed 15 minutes after this challenge and the peritoneal fluids were collected and analyzed for leukotriene levels. Test compounds were administered by gavage (PO) one hour prior to the antigen challenge. Percent inhibition values were determined by comparing the treatment group to the mean of the control group.

In the case of `CC(C)Cc1ccc(C(C)N(O)C(N)=O)cc1` (stereo not drawn) [Example 1, N-hydroxy-N-[1-(4-(2'-methylpropyl)phenyl)ethyl]urea], the IC50 in assay [1] was 640 nM.

For `COc1ccc2cc(C(C)N(O)C(N)=O)ccc2c1` (stereo not drawn) [Example 2, N-hydroxy-N-1-(6-methoxynaphthalen-2-yl)ethyl urea], the IC50 in assay [1] was 430 nM. Also, the “In vivo Inhibition of Leukotriene Biosynthesis” value (shortened to “In vivo Inhibition”) in assay [2] worked out at 66%.

Regarding `CNC(=O)N(O)C(C)c1ccc(CC(C)C)cc1` (stereo not drawn) [Example 3, N'-methyl-N-hydroxy-N-1-(4-(2'-methylpropyl)phenyl)ethyl urea], the IC50 in assay [1] amounted to 700 nM. In assay [2], the “In vivo Inhibition” value is given as 39%.

For `CNC(=O)N(O)C(C)c1ccc2cc(OC)ccc2c1` (stereo not drawn) [Example 4, N'-methyl-N-hydroxy-N-1-(6-methoxynaphthalen-2-yl)ethyl urea], in assay [1], the IC50 was 600 nM.

Regarding `COc1ccc2cc(C(C)N(O)C(C)=O)ccc2c1` (stereo not drawn) [Example 5, N-hydroxy-N-1-(6-methoxynaphthalen-2-yl)ethyl acetamide], the IC50 in assay [1] is 700 nM. The “In vivo Inhibition” value in assay [2] was found to be 62%.

Turning to `COc1ccc2c(c1)c(CCN(O)C(N)=O)c(C)n2C(=O)c1ccc(Cl)cc1` [Example 16, N-hydroxy-N-[2-(N-(4-chlorobenzoyl)-5-methoxy-2-methyl-[1H]-indol-3-yl)ethyl] urea], in assay [1], the IC50 is 400 nM.

Take `CC(C)Cc1ccc(C(C)CN(O)C(N)=O)cc1` (stereo not drawn) [Example 17, N-hydroxy-N-[2-(4-(2-methylpropyl)phenyl)propyl] urea]: in assay [1], the IC50 turned out to be 200 nM.

Regarding `CC(C)Cc1ccc(C(C)N(O)C(N)=S)cc1` (stereo not drawn) [Example 29, N-hydroxy-N-[1-(4-(2'-methylpropyl)phenyl)ethyl] thiourea], in assay [1], the IC50 was < 400 nM.

As to `CCOC(=O)N(O)C(C)c1ccc(CC(C)C)cc1` (stereo not drawn) [Example 30, N-hydroxy-N-[1-(4-(2'-methylpropyl)phenyl)ethyl] ethoxycarbamate], the IC50 in assay [1] is < 400 nM.

Consider `CCSC(=O)N(O)C(C)c1ccc(CC(C)C)cc1` (stereo not drawn) [Example 31, N-hydroxy-N-[1-(4-(2'-methylpropyl)phenyl)ethyl] thioethylcarbamate], for which the IC50 in assay [1] was 200 nM.

As to `CNC(=O)N(O)CCc1c(C)n(C(=O)c2ccc(Cl)cc2)c2ccc(OC)cc12` [Example 32, N-hydroxy-N-[2-(N-(4-chlorobenzoyl)-5-methoxy-2-methyl-[1H]-indol-3-yl)ethyl]-N'-methyl urea], the IC50 in assay [1] was 200 nM. Moreover, the “In vivo Inhibition” value in assay [2] came out at 42%.
